# Source: patent US20190030053A1, “COMPOSITION FOR INCREASING EXPRESSION OF PGC-1alpha” (BENEBIOSIS CO., LTD., priority 2016, published 2019)
# Entries after “also recorded” stand apart in the source; their conditions may differ.
# How the values were obtained:
# [1] = tested on: PGC-1α and related genes; assay: Gene expression by SL treatment in normal mouse models; assay type: in vivo; conditions: normal C57BL/6 mice, oral 0.1 mg/kg/day, 10 weeks, organs, skeletal muscles, abdominal fat
# Protocol: In order to investigate relative gene expression changes by organs compared with before SL (3′-SL & 6′-SL) aministration, 4-week-old C57BL/6 mice were purchased from Dooyeul Biotech (Korea). Water was freely accessible, and a commercially available pellet feed (Dooyeul Biotech, Korea) was given for two weeks. […]
# Sialyllactose or deionized water was orally administered daily. […] The dietary intake and body weight change were measured every 5 days. […]
# (§1) The gene expression changes by administration of the SL (3′-SL & 6′-SL) compositions were quantitatively compared for eight main organs (heart, hippocampus, brain, spinal cord, lung, liver, spleen, and kidney), three skeletal muscles (soleus muscle, quadriceps femoris muscle, and gastrocnemius muscle), and abdominal fat. RNA was extracted by TRIzol agent (Invitrogen). cDNA was synthesized by using RNA, which has been extracted as above and quantified, and a reverse transcription system (Promega, USA). The expression patterns of PGC-1α and related genes were measured by using pre-designed primers and probes (Applied Biosystems; PGC-1α, Mm00447181_m1, GAPDH, and Mm99999915_q1) for the synthesized cDNA and analysis targets (Fndc5, PGC-1α, Erra, UCP1, SOD2, and GPX1). […]
# [2] = tested on: PGC-1α and related genes; assay: Gene expression by body parts in aging stimulation models; assay type: in vivo, mouse; conditions: SAM P1/Sku Slc mice, oral 0.1 mg/kg/day, 12 weeks, organs and skeletal muscles
# Protocol: In order to investigate the gene expression changes by body parts by the treatment with SL (3′-SL & 6′-SL) compositions in aging stimulation models, 4-week-old male aging stimulation model mice (SAM P1/Sku Slc) were purchased from Central Lab Animal (Korea). Water was freely accessible, and a commercially available pellet feed (Dooyeul Biotech, Korea) was given for one week. […]
# Sialyllactose or DW was orally administered daily. […] The dietary intake and body weight change were measured every 5 days. […]
# as §1, with “the like.” for “abdominal fat.”
Structure (SMILES),"expression levels of analysis targets (Fndc5, PGC-1α, Erra, UCP1) vs control group ([1]; 0.1 mg/kg/day)","expression levels of analysis targets (Fndc5, PGC-1α, Erra, UCP1, SOD2, GPX1) vs control group ([2]; 0.1 mg/kg/day)","expression levels of analysis targets (Fndc5, PGC-1α, Erra, UCP1) vs control group [1]","expression levels of analysis targets (Fndc5, PGC-1α, Erra, UCP1, SOD2, GPX1) vs control group [2]"
"CC(=O)N[C@H]1[C@H]([C@H](O)[C@H](O)CO)O[C@@](O[C@H]2[C@@H](O)[C@@H](CO)O[C@@H](O[C@H]3[C@H](O)[C@@H](O)C(O)O[C@@H]3CO)[C@@H]2O)(C(=O)O)C[C@@H]1O (stereo partly drawn) [3′-SL, α-NeuNAc-(2→3)-β-D-Gal-(1→4)-D-Glc]",higher than the negative control group; also recorded: less effective than the 6′-SL administration groups,significant increases; also recorded: relatively low compared with 6′-SL,,
"CC(=O)N[C@H]1[C@H]([C@H](O)[C@H](O)CO)O[C@@](OC[C@H]2O[C@@H](O[C@H]3[C@H](O)[C@@H](O)[C@H](O)O[C@@H]3CO)[C@H](O)[C@@H](O)[C@H]2O)(C(=O)O)C[C@@H]1O [6′-SL, α-NeuNAc-(2→6)-β-D-Gal-(1→4)-D-Glc]",,,higher than the negative control group,significant increases
